In brackets after ≈: the same amount, converted by molar mass. Where two headings read alike, the source gives them in different places.
Tests used:
[1] = tested on: bovine brain tubulin; test: Tubulin polymerization inhibition (turbidimetry); assay type: biochemical; settings: concentration inhibiting 50% of microtubular protein polymerization in vitro; read-out: TPI IC50
Method: Microtubular protein was isolated from calf brain following the modified Shelanski method, based on temperature-dependent assembly/disassembly of tubulin [45]. The protein was stored at −80 °C, and its concentration was determined using the Bradford method before each use. Tubulin polymerization, which occurs when heating a buffered tubulin sample from 4 °C to 37 °C, is accompanied by an increase in the absorbance (at 450 nm) of the sample that was monitored by a Helios α spectrophotometer. […] Then, the temperature was adjusted to 4 °C, and the temperature being shifted to 37 °C allowed for the assembly process of tubulin. The turbidity caused by tubulin polymerization was measured by the increased absorbance at 450 nm. The increase in absorbance obtained for the control sample (without the ligand), which we considered to be 100% tubulin polymerization (0% inhibition), compared with the increase in absorbance determined for the sample containing ligands yielded the degree of tubulin polymerization inhibition (TPI), which is expressed as a percentage value. For the compounds displaying TPI values over 50% at 10 µM, the IC50 value for TPI was calculated. Measurements were performed in triplicate in two independent experiments using microtubular protein from different preparations.

[2] = cited from earlier work
[3] = Aqueous solubility, shake-flask method; assay type: physicochemical; settings: pH 7.0 buffer, thermodynamic from solid, shaking flask, buffered media at pH 7.0, mean of three
Method: The aqueous solubility of compounds was measured in a Helios Alfa Spectrophotometer. Calibration lines at the maximum wavelength of absorbance were determined for each compound. Then, following the shake-flask method, a suspension of 5 mg of each compound in 500 µL in pH 7.0 buffer was stirred for 72 h at room temperature. The mixture was then filtrated over a […] filter to remove the insoluble fraction. The concentration of the compound in the resulting saturated solution was determined via UV absorbance measurement and interpolation in the calibration line. The aqueous solubility values are given as the average of three independent measurements.

[4] = tested on: HeLa cells; parameters: method as in PMID 25970265; settings: read-out: IC50 cell proliferation of HeLa cells; cited from earlier work
[5] = tested on: HT-29 cells; test: Cell growth inhibition (MTT) in the presence of 10 µM verapamil (sensitivity to MDR efflux pumps); assay type: cell-based, human; settings: 10 µM verapamil (P-gp/MDR1 inhibitor)
Method: (§1) Cells were plated in 96-well plates (100 µL/well) at the following concentrations: 30,000 cells/mL (HepG2, U87 MG, T98G, C6, LNCaP, PC3, and HT-29 cells) or 15,000 cells/mL (HeLa and MCF-7 cells). Previous experiments were performed to choose the optimal cell concentration (70–80% confluence) and avoid the formation of cell aggregates. Cells were incubated in complete DMEM or RPMI 1640 medium (see above) at 37 °C and 5% CO2 atmosphere for 24 h to allow for cell attachment to the plate. Then, every compound was added (10 µL/well) to a final concentration of 10 µM. Non-treated cells were used as negative controls. The antiproliferative activity of compounds was measured 72 h after the treatments using the MTT reagent (3-[4,5-dimethylthiazol-2-yl]-2,5-diphenyltetrazolium bromide), (MTT Thiazolyl Blue Tetrazolium Bromide, Sigma-Aldrich, St. Louis, MO, USA) dissolved in PBS at 5 mg/mL. Compounds showing antiproliferative effects at 10 µM were selected to determine their IC50 value. For that purpose, compounds were used at different concentrations ranging from 10^−10 to 10^−2 M. Measurements were performed in triplicate, and each experiment was repeated three times. The IC50 value was determined for every compound using Origin software (OriginLab, Washington, USA). To study the sensitivity to MDR efflux pumps of compounds, the IC50 values were determined by following the same procedure but in the presence of verapamil (final concentration of 10 µM).

[6] = tested on: GL261 cells; test: Cell growth inhibition assay (MTT); assay type: cell-based, murine; settings: Mus musculus, GL261, 72 h after drug exposure
Method: (§2) The cell lines were obtained from ATTC (Manassas, VA, USA). HeLa (human cervix epithelioid carcinoma), MCF7 (human breast adenocarcinoma), HepG2 (human hepatocellular carcinoma), U87 MG (human glioblastoma), T98G (human glioblastoma), GL261 (murine glioma), LNCaP (human prostate cancer), PC-3 (human prostate cancer), and HEK-293 (human embryonic kidney) were grown in Dulbecco’s modified Eagle’s medium (DMEM, Gibco, Waltham, MA, USA), supplemented with 10% (v/v) heat-inactivated fetal bovine serum (HIFBS, Sigma-Aldrich, St. Louis, MO, USA)), 2 mM L-glutamine, 100 μg/mL streptomycin, and 100 units/mL penicillin (Gibco, Waltham, MA, USA) at 37 °C in saturated humidity atmosphere containing 95% air and 5% CO2. Cell line HT-29 (human colon carcinoma) was grown in Roswell Park Memorial Institute (RPMI) 1640 medium (Gibco, Whaltman, MA, USA) supplemented with 10% HIFBS, 100 μg/mL streptomycin, and 100 units/mL penicillin (Gibco, Whaltman, MA, USA) at 37 °C in humidified 95% air and 5% CO2 atmosphere. MycoAlert kit (Lonza, Norwest, Australia) was used to routinely check the presence of mycoplasma, and only mycoplasma-free cells were employed in the experiments.
as §1

[7] = tested on: HeLa cells; test: Cell growth inhibition assay (MTT); assay type: cell-based, human; settings: Homo sapiens, HeLa, 72 h after drug exposure
Method: as §2, §1

[8] = tested on: HepG2 cells; test: Cell growth inhibition assay (MTT); assay type: cell-based, human; settings: Homo sapiens, HepG2, 72 h after drug exposure
Method: as §2, §1

[9] = tested on: HT-29 cells; test: Cell growth inhibition assay (MTT); assay type: cell-based, human; settings: Homo sapiens, HT-29, 72 h after drug exposure
Method: as §2, §1

[10] = tested on: U87MG cells; test: Cell growth inhibition assay (MTT); assay type: cell-based, human; settings: Homo sapiens, U-87 MG; MTT, 72 h after drug exposure
Method: as §2, §1

[11] = tested on: LNCaP cells; test: Cell growth inhibition assay (MTT); assay type: cell-based, human; settings: Homo sapiens, LNCaP, 72 h after drug exposure
Method: as §2, §1

[12] = tested on: MCF7 cells; test: Cell growth inhibition assay (MTT); assay type: cell-based, human; settings: Homo sapiens, MCF7; MTT, 72 h after drug exposure
Method: as §2, §1

[13] = tested on: PC-3 cells; test: Cell growth inhibition assay (MTT); assay type: cell-based, human; settings: Homo sapiens, PC-3, 72 h after drug exposure
Method: as §2, §1

[14] = tested on: T98G cells; test: Cell growth inhibition assay (MTT); assay type: cell-based, human; settings: Homo sapiens, T98G, 72 h after drug exposure
Method: as §2, §1

[15] = tested on: HEK-293 cells; test: Cell growth inhibition assay (MTT), non-tumorigenic cells; assay type: cell-based, human; settings: Homo sapiens, HEK293, 72 h after drug exposure, non-tumorigenic cell line
Method: as §2, §1

[16] = tested on: tumor cell lines; test: Cell growth inhibition assay (MTT), summary statements over several cell lines; assay type: cell-based; settings: read-out: antiproliferative IC50
Method: as §1

[17] = the rest of the tumor cell lines (other than HeLa, HepG2, MCF7, U87MG)

| solubility at 72 h ([3]; pH 7, aqueous buffer) [µg/mL] | IC50 [5] [nM] | IC50 [7] [nM] | IC50 [8] [nM] | IC50 [9] [nM] | IC50 [10] [nM] | IC50 [11] [nM] | IC50 [12] [nM] | IC50 [13] [nM] | IC50 ([16]; HeLa, HepG2, MCF7, and U87MG) [nM] | IC50 [16, 17] [nM] | SMILES | IC50 [1] [nM] | water solubility [2] [µg/mL] | IC50 [4] [nM] | solubility at 72 h ([3]; aqueous buffer) [µg/mL] | IC50 [6] [nM] | IC50 [14] [nM] | IC50 [15] [nM] |
| --- | --- | --- | --- | --- | --- | --- | --- | --- | --- | --- | --- | --- | --- | --- | --- | --- | --- | --- |
|  |  |  |  |  |  |  |  |  |  |  | Cc1cc2nc(/C=C/c3cccnc3)sc2cc1C [MI181, reference compound] | 4600 |  | 17 | 5.6 (≈ 21 µM) |  |  |  |
| 57 (≈ 210 µM) | 2150 | 1270 | 1190 | 2230 | 1320 | 1430 | 1170 | 1550 | ~1000 | 2000 to 3000 | COc1ccc2nc(NCc3cccnc3)sc2c1 [Compound 2, 6-methoxy-N-(pyridin-3-ylmethyl)benzo[d]thiazol-2-amine] | > 10000 |  |  |  | 1910 | 2110 | > 10000 |
| 55 (≈ 203 µM) | 3270 | 1450 | 1230 | 3390 | 1510 | 2010 | 1740 | 3310 | ~1000 | 2000 to 3000 | COc1ccc2nc(NCc3ccncc3)sc2c1 [Compound 3, 6-methoxy-N-(pyridin-4-ylmethyl)benzo[d]thiazol-2-amine] | > 10000 |  |  |  | 2030 | 2270 | > 10000 |

| SMILES | solubility at 72 h ([3]; pH 7, aqueous buffer) [µg/mL] | IC50 [5] [nM] | IC50 [7] [nM] | IC50 [8] [nM] | IC50 [9] [nM] | IC50 [10] [nM] | IC50 [11] [nM] | IC50 [12] [nM] | IC50 [13] [nM] | IC50 ([16]; HeLa, HepG2, MCF7, and U87MG) [nM] | IC50 [16, 17] [nM] | IC50 [1] [nM] | water solubility [2] [µg/mL] | IC50 [4] [nM] | solubility at 72 h ([3]; aqueous buffer) [µg/mL] | IC50 [6] [nM] | IC50 [14] [nM] | IC50 [15] [nM] |
| --- | --- | --- | --- | --- | --- | --- | --- | --- | --- | --- | --- | --- | --- | --- | --- | --- | --- | --- |
| COc1ccc(/C=C\c2cc(OC)c(OC)c(OC)c2)cc1O [CA-4, combretastatin A-4, reference compound] | 1.1 (≈ 3.48 µM) |  |  |  |  |  |  |  |  |  |  | […] | 1 (≈ 3.16 µM) |  |  |  |  |  |

Reference: PMC10301603, “Potent and Selective Benzothiazole-Based Antimitotics with Improved Water Solubility: Design, Synthesis, and Evaluation as Novel Anticancer Agents” (Pharmaceutics, 2023)
